Assay results reported in US20020035061A1, “COMPOSITIONS AND METHODS FOR TREATING INFECTIONS USING CATIONIC PEPTIDES ALONE OR IN COMBINATION WITH ANTIBIOTICS” (priority 1996, published 2002).
Like-named read-outs stand apart in the source and are kept apart here.

Key:
Type in all cases: cell-based
S. maltophilia = tested on: S. maltophilia
P. aeruginosa = tested on: P. aeruginosa
K. pneumoniae = tested on: K. pneumoniae
E. coli = tested on: E. coli
E. faecalis = tested on: E. faecalis
S. marcescens = tested on: S. marcescens
A. calcoaceticus = tested on: A. calcoaceticus
S. aureus = tested on: S. aureus
E. cloacae = E. cloacae ECL007
[1] = tested on: vancomycin / teicoplanin resistant enterococci; test: microbe, parasite or virus in culture; settings: for Peptide MIC Alone: Amikacin section; for FIC: peptide + Amikacin
[2] = tested on: inherently resistant microorganisms; test: microbe, parasite or virus in culture
[3] = tested on: microorganisms with acquired resistance; test: microbe, parasite or virus in culture; settings: for Peptide MIC Alone: Gentamicin section; for FIC: peptide + Gentamicin
bacterial isolates = test: microbe, parasite or virus in culture

ILPWKWPWWPWRR [MBI 10]
MIC (S. maltophilia; S. maltophilia SMA001): 128 µg/mL | MIC (P. aeruginosa; P. aeruginosa PA003): >128 µg/mL | MIC (K. pneumoniae; K. pneumoniae KP001): 128 µg/mL | MIC (E. coli; E. coli ECO002): 128 µg/mL | MIC (E. faecalis; E. faecalis EFS004): 8 µg/mL | MIC (S. marcescens; S. marcescens SMS003): >128 µg/mL | MIC (A. calcoaceticus; A. calcoaceticus AC001): 128 µg/mL | MIC (S. aureus; S. aureus SA007): 2 µg/mL

ILKKWPNNPNRRK [MBI 11CNW1]
MIC (S. maltophilia; S. maltophilia SMA002): 32 µg/mL | MIC (P. aeruginosa; P. aeruginosa PA004): 64 µg/mL | MIC (K. pneumoniae; K. pneumoniae KP001): 32 µg/mL | MIC (E. coli; E. coli ECO005): 32 µg/mL | MIC (E. faecalis; E. faecalis EFS001): 8 µg/mL | MIC (E. cloacae): 64 µg/mL | MIC (S. marcescens; S. marcescens SMS003): >128 µg/mL | MIC (A. calcoaceticus; A. calcoaceticus AC002): 8 µg/mL | MIC (S. aureus; S. aureus SA010): 4 µg/mL

KWKLFIKKLTPAVKKVLLTGLPALIS [MBI 29F1]
Amikacin MIC + Peptide ([1]; E. faecalis EFS008): 4 µg/mL | Peptide MIC + Amikacin ([1]; E. faecalis EFS008): 0.5 µg/mL | Peptide MIC Alone ([1]; E. faecalis EFS008): 4 µg/mL | Amikacin MIC + Peptide ([1]; E. faecium EFM004): 8 µg/mL | Peptide MIC + Amikacin ([1]; E. faecium EFM004): 16 µg/mL | Peptide MIC Alone ([1]; E. faecium EFM004): 32 µg/mL | FIC ([1]; E. faecalis EFS008): 0.19 | FIC ([1]; E. faecium EFM004): 0.53 | Peptide MIC + Amikacin ([2]; A. baumannii): 2 µg/mL | Peptide MIC Alone ([2]; A. baumannii, Amikacin section): 8 µg/mL | Peptide MIC + Amikacin ([2]; S. maltophilia): 2 µg/mL | FIC ([2]; peptide + Amikacin, A. baumannii): 0.75 | Gentamicin MIC + Peptide ([3]; A. calcoaceticus AC001): 2 µg/mL | Peptide MIC + Gentamicin ([3]; A. calcoaceticus AC001): 4 µg/mL | Peptide MIC Alone ([3]; A. calcoaceticus AC001): 8 µg/mL | Gentamicin MIC + Peptide ([3]; P. aeruginosa PA023): 0.125 µg/mL | Peptide MIC + Gentamicin ([3]; P. aeruginosa PA023): 64 µg/mL | Peptide MIC Alone ([3]; P. aeruginosa PA023): 128 µg/mL | FIC ([3]; A. calcoaceticus AC001): 0.75 | FIC ([3]; P. aeruginosa PA023): 0.52 | Peptide MIC Alone (bacterial isolates; 1. Amikacin, A. baumannii ABI001): 8 µg/mL | Peptide MIC Alone (bacterial isolates; 1. Amikacin, A. baumannii ABI003): 4 µg/mL | Peptide MIC Alone (bacterial isolates; 1. Amikacin, E. coli ECO022): 4 µg/mL | Peptide MIC Alone (bacterial isolates; 1. Amikacin, E. faecalis EFS008): 4 µg/mL | Peptide MIC Alone (bacterial isolates; 1. Amikacin, E. faecium EFM004): 32 µg/mL | Peptide MIC Alone (bacterial isolates; 1. Amikacin, P. aeruginosa PA022): 4 µg/mL | Peptide MIC Alone (bacterial isolates; 1. Amikacin, S. aureus SA014 MRSA): 4 µg/mL | Peptide MIC Alone (bacterial isolates; 1. Amikacin, S. epidermidis SE002): 32 µg/mL | Peptide MIC Alone (bacterial isolates; 1. Amikacin, S. epidermidis SE003): 32 µg/mL | Peptide MIC Alone (bacterial isolates; 1. Amikacin, S. maltophilia SMA021): 8 µg/mL | Peptide MIC Alone (bacterial isolates; 1. Amikacin, S. maltophilia SMA022): 16 µg/mL | Peptide MIC Alone (bacterial isolates; 4. Gentamicin, P. aeruginosa PA023): 128 µg/mL | Peptide MIC Alone (bacterial isolates; 4. Gentamicin, S. maltophilia SMA016): 32 µg/mL | Peptide MIC Alone (bacterial isolates; 4. Gentamicin, S. maltophilia SMA017): 4 µg/mL | Amikacin MIC + Peptide (bacterial isolates; A. baumannii ABI001): 0.25 µg/mL | Peptide MIC + Amikacin (bacterial isolates; A. baumannii ABI001): 4 µg/mL | Amikacin MIC + Peptide (bacterial isolates; A. baumannii ABI003): 2 µg/mL | Peptide MIC + Amikacin (bacterial isolates; A. baumannii ABI003): 2 µg/mL | Peptide MIC + Amikacin (bacterial isolates; E. coli ECO022): 2 µg/mL | Amikacin MIC + Peptide (bacterial isolates; E. faecalis EFS008): 16 µg/mL | Peptide MIC + Amikacin (bacterial isolates; E. faecalis EFS008): 0.125 µg/mL | Amikacin MIC + Peptide (bacterial isolates; E. faecium EFM004): 32 µg/mL | Peptide MIC + Amikacin (bacterial isolates; E. faecium EFM004): 8 µg/mL | Amikacin MIC + Peptide (bacterial isolates; P. aeruginosa PA022): 64 µg/mL | Peptide MIC + Amikacin (bacterial isolates; P. aeruginosa PA022): 0.125 µg/mL | Gentamicin MIC + Peptide (bacterial isolates; P. aeruginosa PA023): 0.125 µg/mL | Peptide MIC + Gentamicin (bacterial isolates; P. aeruginosa PA023): 64 µg/mL | Amikacin MIC + Peptide (bacterial isolates; S. aureus SA014 MRSA): 16 µg/mL | Peptide MIC + Amikacin (bacterial isolates; S. aureus SA014 MRSA): 0.125 µg/mL | Amikacin MIC + Peptide (bacterial isolates; S. epidermidis SE002): 16 µg/mL | Peptide MIC + Amikacin (bacterial isolates; S. epidermidis SE002): 4 µg/mL | Amikacin MIC + Peptide (bacterial isolates; S. epidermidis SE003): 16 µg/mL | Peptide MIC + Amikacin (bacterial isolates; S. epidermidis SE003): 8 µg/mL | Gentamicin MIC + Peptide (bacterial isolates; S. maltophilia SMA016): 16 µg/mL | Peptide MIC + Gentamicin (bacterial isolates; S. maltophilia SMA016): 16 µg/mL | Gentamicin MIC + Peptide (bacterial isolates; S. maltophilia SMA017): 32 µg/mL | Peptide MIC + Gentamicin (bacterial isolates; S. maltophilia SMA017): 0.125 µg/mL | Amikacin MIC + Peptide (bacterial isolates; S. maltophilia SMA021): 8 µg/mL | Peptide MIC + Amikacin (bacterial isolates; S. maltophilia SMA021): 2 µg/mL | Amikacin MIC + Peptide (bacterial isolates; S. maltophilia SMA022): 16 µg/mL | Peptide MIC + Amikacin (bacterial isolates; S. maltophilia SMA022): 4 µg/mL | FIC (bacterial isolates; peptide + Amikacin, A. baumannii ABI001): 0.51 | FIC (bacterial isolates; peptide + Amikacin, A. baumannii ABI003): 0.63 | FIC (bacterial isolates; peptide + Amikacin, E. coli ECO022): 0.51 | FIC (bacterial isolates; peptide + Amikacin, E. faecalis EFS008): 0.28 | FIC (bacterial isolates; peptide + Amikacin, E. faecium EFM004): 0.38 | FIC (bacterial isolates; peptide + Amikacin, P. aeruginosa PA022): 0.53 | FIC (bacterial isolates; peptide + Amikacin, S. aureus SA014 MRSA): 0.53 | FIC (bacterial isolates; peptide + Amikacin, S. epidermidis SE002): 0.38 | FIC (bacterial isolates; peptide + Amikacin, S. epidermidis SE003): 0.50 | FIC (bacterial isolates; peptide + Amikacin, S. maltophilia SMA021): 0.31 | FIC (bacterial isolates; peptide + Amikacin, S. maltophilia SMA022): 0.31 | FIC (bacterial isolates; peptide + Gentamicin, P. aeruginosa PA023): 0.52 | FIC (bacterial isolates; peptide + Gentamicin, S. maltophilia SMA016): 0.56 | FIC (bacterial isolates; peptide + Gentamicin, S. maltophilia SMA017): 0.53

ILRNPNNPNRRK [MBI 11B7CNF12]
MIC (S. maltophilia; S. maltophilia strain SMA002): 64 µg/mL | MIC (P. aeruginosa; P. aeruginosa strain PA004): >128 µg/mL | MIC (K. pneumoniae; K. pneumoniae strain KP001): 16 µg/mL | MIC (E. coli; E. coli strain ECO005): 16 µg/mL | MIC (E. faecalis; E. faecalis strain EFS001): 2 µg/mL | MIC (S. marcescens; S. marcescens strain SMS003): >128 µg/mL | MIC (A. calcoaceticus; A. calcoaceticus strain AC002): 4 µg/mL

ILKKNPNNPARRK [MBI 11CNX1]
MIC (S. maltophilia; S. maltophilia SMA002): >64 µg/mL | MIC (P. aeruginosa; P. aeruginosa PA024): >64 µg/mL | MIC (K. pneumoniae; K. pneumoniae KP001): >64 µg/mL | MIC (E. coli; E. coli ECO005): 64 µg/mL | MIC (E. faecalis; E. faecalis EFS004): 16 µg/mL | MIC (E. cloacae): >64 µg/mL | MIC (S. marcescens; S. marcescens SMS003): >64 µg/mL | MIC (A. calcoaceticus; A. calcoaceticus AC001): >64 µg/mL | MIC (S. aureus; S. aureus SA006): 2 µg/mL
